Measured values reported in ChEMBL document CHEMBL6083258, “Advances in synthesis of novel annulated azecines and their unique pharmacological properties” (Eur J Med Chem, 2024).
pIC50, pKi: −log10 of the molar value. Blank lines part the entries; values can stand above or below the molecule they belong to.

Legend:
Acetylcholinesterase [1] = target: T1, Acetylcholinesterase (Homo sapiens, UniProt P22303); assay: Binding affinity to AChE (unknown origin) assessed as inhibition constant
Acetylcholinesterase [2] = target: T1, Acetylcholinesterase; assay: Inhibition of human AChE using acetylthiocholine iodide as substrate after 15 mins by Ellman's method
[3] = target: T2, Amine oxidase [flavin-containing] B (Homo sapiens, UniProt P27338); assay: Inhibition of MAO-B (unknown origin)
T2 sequence (P27338 whole entry): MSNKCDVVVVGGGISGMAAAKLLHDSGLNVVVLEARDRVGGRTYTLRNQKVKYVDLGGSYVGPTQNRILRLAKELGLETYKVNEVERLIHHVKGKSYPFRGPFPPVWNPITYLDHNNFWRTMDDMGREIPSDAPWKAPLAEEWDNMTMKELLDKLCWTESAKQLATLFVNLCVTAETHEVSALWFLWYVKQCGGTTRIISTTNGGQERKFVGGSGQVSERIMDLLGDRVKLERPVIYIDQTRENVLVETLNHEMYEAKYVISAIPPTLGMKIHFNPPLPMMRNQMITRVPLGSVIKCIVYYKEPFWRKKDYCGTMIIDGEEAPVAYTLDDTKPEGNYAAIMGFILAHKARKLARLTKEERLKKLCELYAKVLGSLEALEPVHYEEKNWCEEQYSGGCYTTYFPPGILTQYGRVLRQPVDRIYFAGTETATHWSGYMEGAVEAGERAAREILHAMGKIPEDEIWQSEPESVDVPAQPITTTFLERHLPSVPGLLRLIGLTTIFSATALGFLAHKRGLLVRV

HepG2 = assay: Antiproliferative activity against human HepG2 cells assessed as reduction in cell viability incubated for 48 hrs by MTT assay; format: functional, cell-based; conditions: HepG2, 48 h
MCF7 = assay: Antiproliferative activity against human MCF7 cells assessed as reduction in cell viability incubated for 48 hrs by MTT assay; format: functional, cell-based; conditions: MCF7, 48 h
[4] = target: ATP-dependent translocase ABCB1 (Homo sapiens, UniProt P08183); assay: Inhibition of p-glycoprotein (unknown origin)
ATP-dependent translocase ABCB1, sequence (P08183 whole entry): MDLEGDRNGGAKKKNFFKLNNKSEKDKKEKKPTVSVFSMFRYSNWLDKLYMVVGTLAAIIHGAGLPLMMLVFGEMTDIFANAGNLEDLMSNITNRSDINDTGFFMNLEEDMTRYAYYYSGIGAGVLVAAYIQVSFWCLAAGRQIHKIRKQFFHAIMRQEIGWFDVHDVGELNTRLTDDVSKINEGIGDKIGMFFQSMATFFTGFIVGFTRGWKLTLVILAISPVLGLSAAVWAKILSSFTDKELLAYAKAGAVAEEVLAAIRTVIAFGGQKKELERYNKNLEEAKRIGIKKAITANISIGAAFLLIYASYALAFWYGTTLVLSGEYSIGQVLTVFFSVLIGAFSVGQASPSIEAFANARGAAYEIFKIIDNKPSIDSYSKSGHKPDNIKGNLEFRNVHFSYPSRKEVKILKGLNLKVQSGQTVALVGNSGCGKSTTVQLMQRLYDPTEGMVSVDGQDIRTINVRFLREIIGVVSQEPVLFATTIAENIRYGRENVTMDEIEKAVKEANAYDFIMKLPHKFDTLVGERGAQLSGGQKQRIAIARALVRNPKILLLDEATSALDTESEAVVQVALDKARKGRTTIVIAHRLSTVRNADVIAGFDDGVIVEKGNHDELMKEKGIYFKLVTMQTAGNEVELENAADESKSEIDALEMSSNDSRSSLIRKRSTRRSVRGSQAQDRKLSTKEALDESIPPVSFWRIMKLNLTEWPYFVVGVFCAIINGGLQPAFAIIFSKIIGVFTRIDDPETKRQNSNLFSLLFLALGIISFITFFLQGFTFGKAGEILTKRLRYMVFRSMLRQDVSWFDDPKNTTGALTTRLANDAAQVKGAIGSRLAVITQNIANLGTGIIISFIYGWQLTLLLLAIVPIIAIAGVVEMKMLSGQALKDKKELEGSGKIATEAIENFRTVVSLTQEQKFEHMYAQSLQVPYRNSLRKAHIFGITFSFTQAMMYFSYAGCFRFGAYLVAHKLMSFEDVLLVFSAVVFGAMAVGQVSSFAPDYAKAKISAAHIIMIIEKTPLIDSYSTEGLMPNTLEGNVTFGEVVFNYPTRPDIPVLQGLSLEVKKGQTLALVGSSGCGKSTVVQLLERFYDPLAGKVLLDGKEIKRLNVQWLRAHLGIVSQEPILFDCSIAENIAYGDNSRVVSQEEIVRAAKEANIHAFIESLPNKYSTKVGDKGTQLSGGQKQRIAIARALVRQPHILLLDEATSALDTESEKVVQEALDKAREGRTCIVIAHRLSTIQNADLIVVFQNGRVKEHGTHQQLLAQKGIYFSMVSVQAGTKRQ

T1 sequence (P22303 whole entry): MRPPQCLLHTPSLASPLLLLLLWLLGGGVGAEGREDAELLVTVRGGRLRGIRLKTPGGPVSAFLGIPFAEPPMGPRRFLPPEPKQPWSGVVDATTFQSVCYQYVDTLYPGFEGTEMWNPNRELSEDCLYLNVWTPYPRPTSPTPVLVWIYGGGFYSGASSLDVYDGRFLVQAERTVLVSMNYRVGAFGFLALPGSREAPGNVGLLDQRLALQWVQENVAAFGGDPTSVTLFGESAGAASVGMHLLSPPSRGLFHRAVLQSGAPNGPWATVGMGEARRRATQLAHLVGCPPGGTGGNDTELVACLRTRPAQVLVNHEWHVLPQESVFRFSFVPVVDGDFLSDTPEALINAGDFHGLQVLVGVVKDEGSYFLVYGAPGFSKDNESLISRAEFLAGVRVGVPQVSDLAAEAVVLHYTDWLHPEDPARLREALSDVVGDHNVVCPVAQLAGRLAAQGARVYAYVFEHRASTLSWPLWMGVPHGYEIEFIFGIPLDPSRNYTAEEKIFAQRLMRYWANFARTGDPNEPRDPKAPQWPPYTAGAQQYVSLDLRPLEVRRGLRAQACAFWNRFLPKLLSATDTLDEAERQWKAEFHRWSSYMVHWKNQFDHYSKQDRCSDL

Structure (SMILES): COCC1=C=C(c2ccc(OC)cc2)c2cc(OC)c(OC)cc2CCN(C)/C=C\1C(=O)OC
pKi (Acetylcholinesterase [1]): 5.31

Structure (SMILES): COC(=O)/C1=C/N(C)CCc2cc(OC)c(OC)cc2C(C)=C=C1c1ccccc1
pIC50 (Acetylcholinesterase [2]): 4.85
pIC50 [3]: 5.15

pIC50 (HepG2): < 4.00
pIC50 (MCF7): < 4.00
pIC50 [4]: 8.38
Structure (SMILES): COC(=O)/C1=C/N(C)CCc2cc(OC)c(OC)cc2C(c2ccc(OC)cc2)=C=C1c1ccccc1
